Reference: ChEMBL document CHEMBL1201862, “PubChem BioAssay data set” (2004)
The source made the active and inactive calls.

Tests used:
[1] = test system: H4; experiment: Luminescence Cell-Based Dose Response HTS to Identify Activators of 5'UTR Stem-Loop Driven Prion Protein mRNA Translation in H4 Neuroglioblastoma Cells. [Related pubchem assays: 1829 (Project Summary), 1814 (Primary HTS)]; type: functional; details: Homo sapiens
[2] = Luminescence Cell-Based Dose Response HTS to Identify Activators of Luciferase Translation or Activity in H4 […] Cells. [Related pubchem assays: 1829 (Project Summary), 1814 (Primary HTS)]; type: functional
[3] = intracellular Trypanosoma cruzi inhibitors in host cells – cell-based, plate reader, cherry-pick samples, set 3, dose response (AID 651818); type: functional;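 note: compounds incubated with infected cells for about four days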
[4] = target: Nonstructural protein 1 (Influenza A virus, UniProt Q194T2); type: functional, Influenza A virus (A/California/07/2009(H1N1))
[5] = target: T1, Rac GTPase-activating protein 1 (Homo sapiens, UniProt Q9H0H5); experiment: MgcRacGAP GTPase-activating activity inhibitors, confirmation, biochemical, ADP Hunter fluorescence, primary and confirmatory (AID 624330); type: functional
T1 sequence (Q9H0H5 whole entry): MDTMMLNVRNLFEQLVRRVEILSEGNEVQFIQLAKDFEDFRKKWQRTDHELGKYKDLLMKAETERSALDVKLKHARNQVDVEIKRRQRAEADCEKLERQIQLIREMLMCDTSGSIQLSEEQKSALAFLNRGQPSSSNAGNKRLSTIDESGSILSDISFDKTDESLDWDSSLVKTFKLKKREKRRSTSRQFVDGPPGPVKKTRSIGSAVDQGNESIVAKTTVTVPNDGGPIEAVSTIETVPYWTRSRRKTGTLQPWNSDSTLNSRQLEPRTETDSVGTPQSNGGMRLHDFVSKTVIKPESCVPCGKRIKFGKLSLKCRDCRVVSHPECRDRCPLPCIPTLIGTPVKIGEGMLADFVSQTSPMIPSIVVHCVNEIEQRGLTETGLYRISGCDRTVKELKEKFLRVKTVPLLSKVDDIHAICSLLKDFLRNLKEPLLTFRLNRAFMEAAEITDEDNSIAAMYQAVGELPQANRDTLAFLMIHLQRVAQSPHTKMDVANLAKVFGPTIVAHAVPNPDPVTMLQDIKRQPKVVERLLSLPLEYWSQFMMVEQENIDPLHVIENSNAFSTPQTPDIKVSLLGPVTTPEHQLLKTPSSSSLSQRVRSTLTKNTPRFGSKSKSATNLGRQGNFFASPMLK

[6] = target: Induced myeloid leukemia cell differentiation protein Mcl-1 (Homo sapiens, UniProt Q07820); type: functional
[7] = test system: Vero; experiment: cells; type: functional; details: Chlorocebus sabaeus
[8] = test system: INS1; experiment: beta cell apoptosis inhibitors, cytokine rescue, dose response, luminescence, retest (AID 449756); type: functional, cell-based; details: Rattus norvegicus;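 note: cell death triggered by IL-1 beta plus TNF-alpha plus IFN-gamma mixture; protective hits raise ATP signal compared with cytokine alone wells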
[9] = cytotoxicity toward NIH3T3 fibroblasts, dose response, counter-screen, cell-based, ATP luminescence, mouse fibroblasts (AID 2010); type: functional;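 note: cells exposed to compound for about 90 hours before reading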
[10] = inhibitors of intracellular T. cruzi replication, confirmation, NIH3T3 host cells, beta-gal luminescence (AID 2044); type: functional, cell-based;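 note: intracellular parasites grown in NIH/3T3 mouse fibroblasts as host cells; luminescent beta-galactosidase reporter signal from transgenic T. cruzi replicating inside host cells; inhibitors lower the luminescence signal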
[11] = target: T2, Zinc finger protein mex-5 (Caenorhabditis elegans, UniProt Q9XUB2); experiment: MEX-5/TCR-2 RNA interaction inhibitors, dose response, biochemical, C. elegans, fluorescence polarization (AID 1960)
T2 sequence (Q9XUB2 whole entry): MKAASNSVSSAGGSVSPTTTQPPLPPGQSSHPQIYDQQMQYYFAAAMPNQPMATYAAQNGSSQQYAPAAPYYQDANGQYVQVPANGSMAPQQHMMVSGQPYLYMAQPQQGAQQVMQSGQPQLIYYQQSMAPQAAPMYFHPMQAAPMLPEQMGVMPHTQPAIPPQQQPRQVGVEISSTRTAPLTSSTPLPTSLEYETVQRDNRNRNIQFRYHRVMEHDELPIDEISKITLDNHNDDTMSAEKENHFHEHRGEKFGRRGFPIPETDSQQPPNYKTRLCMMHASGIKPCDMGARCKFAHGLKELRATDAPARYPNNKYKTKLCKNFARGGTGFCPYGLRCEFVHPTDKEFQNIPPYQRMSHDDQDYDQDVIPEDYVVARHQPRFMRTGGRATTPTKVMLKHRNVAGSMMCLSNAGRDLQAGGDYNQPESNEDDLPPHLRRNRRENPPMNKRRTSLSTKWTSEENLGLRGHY

[12] = target: T3, RNA-binding protein pos-1 (Caenorhabditis elegans, UniProt G5EF15); experiment: inhibitors of POS-1/mex-3 RNA binding, dose response, biochemical, fluorescence polarization (AID 1964);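 note: purified POS-1 fused to maltose binding protein made in E. coli; potency of compounds blocking POS-1 binding to fluorescent RNA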
T3 sequence (G5EF15 whole entry): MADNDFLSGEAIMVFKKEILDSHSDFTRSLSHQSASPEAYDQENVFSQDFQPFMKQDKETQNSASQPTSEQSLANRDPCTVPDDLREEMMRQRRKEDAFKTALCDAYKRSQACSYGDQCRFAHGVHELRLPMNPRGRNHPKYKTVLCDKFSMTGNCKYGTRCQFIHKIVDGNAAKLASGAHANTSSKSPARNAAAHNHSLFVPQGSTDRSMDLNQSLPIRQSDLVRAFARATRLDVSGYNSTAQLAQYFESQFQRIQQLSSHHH

[13] = target: T4, Protein RecA (Mycobacterium tuberculosis, UniProt P9WHJ3); experiment: Fluorescence Cell-Free Homogeneous Dose Retest to Identify Inhibitors of RecA-Intein Splicing Activity. [Related pubchem assays (depositor defined):AID2097, AID2223, AID489010, AID492950]; type: functional
T4 sequence (P9WHJ3 whole entry): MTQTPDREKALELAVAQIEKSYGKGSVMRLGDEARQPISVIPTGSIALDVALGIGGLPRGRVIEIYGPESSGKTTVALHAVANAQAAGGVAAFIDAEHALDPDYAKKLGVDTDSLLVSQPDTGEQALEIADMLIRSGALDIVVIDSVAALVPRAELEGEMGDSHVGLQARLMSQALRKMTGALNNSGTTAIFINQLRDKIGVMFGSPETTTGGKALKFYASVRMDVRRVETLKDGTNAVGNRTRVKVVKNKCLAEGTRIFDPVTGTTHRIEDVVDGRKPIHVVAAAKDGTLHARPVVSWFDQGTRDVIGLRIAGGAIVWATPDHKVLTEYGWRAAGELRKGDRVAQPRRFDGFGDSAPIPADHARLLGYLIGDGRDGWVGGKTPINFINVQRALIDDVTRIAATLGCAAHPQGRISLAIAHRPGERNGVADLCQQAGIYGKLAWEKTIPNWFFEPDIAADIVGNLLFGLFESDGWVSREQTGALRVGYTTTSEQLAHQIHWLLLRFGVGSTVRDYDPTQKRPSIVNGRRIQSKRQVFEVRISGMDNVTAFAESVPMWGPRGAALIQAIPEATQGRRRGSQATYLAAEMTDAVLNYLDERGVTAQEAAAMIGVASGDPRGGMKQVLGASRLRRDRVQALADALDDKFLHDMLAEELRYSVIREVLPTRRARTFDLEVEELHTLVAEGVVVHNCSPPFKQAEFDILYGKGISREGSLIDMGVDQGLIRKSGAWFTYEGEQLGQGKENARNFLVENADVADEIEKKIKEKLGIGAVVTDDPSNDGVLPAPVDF

[14] = target: T5, Replicative DNA helicase DnaB (Mycobacterium tuberculosis, UniProt P9WMR3); experiment: DnaB intein splicing inhibitors, dose response, biochemical, cell-free fluorescence (AID 449749); type: functional
T5 sequence (P9WMR3 whole entry): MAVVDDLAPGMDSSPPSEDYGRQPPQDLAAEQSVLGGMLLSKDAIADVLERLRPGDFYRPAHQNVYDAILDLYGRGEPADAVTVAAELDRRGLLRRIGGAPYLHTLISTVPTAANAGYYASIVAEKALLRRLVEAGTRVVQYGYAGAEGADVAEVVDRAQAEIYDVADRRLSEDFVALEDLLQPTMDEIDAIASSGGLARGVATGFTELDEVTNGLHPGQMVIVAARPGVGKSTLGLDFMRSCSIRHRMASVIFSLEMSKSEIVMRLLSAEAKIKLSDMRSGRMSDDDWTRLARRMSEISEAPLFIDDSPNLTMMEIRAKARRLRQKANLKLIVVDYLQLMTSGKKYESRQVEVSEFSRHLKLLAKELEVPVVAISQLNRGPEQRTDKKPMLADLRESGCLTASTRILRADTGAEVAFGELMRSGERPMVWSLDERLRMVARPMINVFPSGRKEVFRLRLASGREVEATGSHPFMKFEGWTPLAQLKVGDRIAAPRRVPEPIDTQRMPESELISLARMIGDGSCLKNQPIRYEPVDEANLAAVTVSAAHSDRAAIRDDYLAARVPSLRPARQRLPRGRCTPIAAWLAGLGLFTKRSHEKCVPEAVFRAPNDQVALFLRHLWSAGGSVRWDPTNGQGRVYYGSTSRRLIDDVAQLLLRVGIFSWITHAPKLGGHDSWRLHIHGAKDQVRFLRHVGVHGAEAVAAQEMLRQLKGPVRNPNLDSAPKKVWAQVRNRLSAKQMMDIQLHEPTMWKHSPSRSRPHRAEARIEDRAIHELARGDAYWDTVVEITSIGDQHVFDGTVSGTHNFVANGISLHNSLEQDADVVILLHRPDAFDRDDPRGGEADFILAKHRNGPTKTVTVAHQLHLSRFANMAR

[15] = Luminescence Cell-Based Dose Retest to Confirm Inhibitors of Cancer Stem Cells. [Related pubchem assays (depositor defined):AID2717, AID2721]; type: functional; details: Homo sapiens

Chain of Nonstructural protein 1 (Q194T2 whole entry): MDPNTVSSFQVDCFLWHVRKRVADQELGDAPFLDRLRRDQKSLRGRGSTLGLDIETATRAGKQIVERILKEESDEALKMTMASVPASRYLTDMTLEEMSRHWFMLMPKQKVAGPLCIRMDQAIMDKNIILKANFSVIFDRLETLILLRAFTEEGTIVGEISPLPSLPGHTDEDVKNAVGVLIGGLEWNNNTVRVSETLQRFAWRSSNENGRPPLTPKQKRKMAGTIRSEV
Chain of Induced myeloid leukemia cell differentiation protein Mcl-1 (Q07820 whole entry): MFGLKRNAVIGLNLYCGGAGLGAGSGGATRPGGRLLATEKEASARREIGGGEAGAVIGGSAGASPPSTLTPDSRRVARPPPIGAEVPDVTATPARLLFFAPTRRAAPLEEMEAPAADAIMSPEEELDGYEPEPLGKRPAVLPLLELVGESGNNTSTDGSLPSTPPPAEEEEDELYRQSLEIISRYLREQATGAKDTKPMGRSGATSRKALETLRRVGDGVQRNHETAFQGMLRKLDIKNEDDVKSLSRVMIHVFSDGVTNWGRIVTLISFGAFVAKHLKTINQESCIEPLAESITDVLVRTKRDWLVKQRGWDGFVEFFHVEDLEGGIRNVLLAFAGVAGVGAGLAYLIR

SMILES: Cn1cc(/C=C2/SC(=O)N(c3ccccc3)C2=O)c2ccccc21
- EC50 [1]: 94.6 µM (active)
- EC50 [2]: 50.8 µM (active)

SMILES: C[C@H](CO)N1C[C@H](C)[C@@H](CN(C)C(=O)Nc2cccc3ccccc23)Oc2c(NC(=O)Nc3ccc4c(c3)OCO4)cccc2C1=O
- AC50 [3]: 6.85 µM (active)

SMILES: CC(C)C(=O)OCC(=O)Nc1ccc(N=Nc2ccccc2)cc1
- IC50 [4]: > 100 µM (active)

SMILES: COc1ccc(NC(=O)Nc2cccc3c2O[C@H](CN(C)Cc2ccc(C(=O)Nc4ccccc4N)cc2)[C@@H](C)CN([C@@H](C)CO)C3=O)cc1
- AC50 [3]: 1.92 µM (active)

SMILES: CN(C)C=O.Oc1cccc2c(NC(S)=Nc3ccc(OC(F)F)cc3)cccc12
- EC50 [1]: > 120 µM (not active)
- IC50 [5]: 116 µM (active)
- EC50 [2]: 12.8 µM (active)

SMILES: O=C(CCSc1ccc(Cl)cc1)N1CCCCCC1
- EC50 [1]: 21.6 µM (active)
- EC50 [2]: > 120 µM (not active)

SMILES: O=C(NCC1CCCO1)C(=O)N/N=C/c1cc(Cl)ccc1O (stereo unspecified)
- IC50 [4]: 7.81 µM (active)

SMILES: C[C@H](CO)N1C[C@H](C)[C@@H](CN(C)Cc2ccc(C(F)(F)F)cc2)Oc2c(NS(=O)(=O)c3ccccc3)cccc2C1=O
- AC50 [3]: 8.8 µM (active)

SMILES: C/C(=C\c1ccco1)C1Nc2cccc3cccc(c23)N1
- IC50 [6]: 8.61 µM (active)

SMILES: C[C@@H]1CCCCO[C@@H](CN(C)Cc2ccc(Cl)c(Cl)c2)[C@@H](C)CN([C@H](C)CO)C(=O)c2cc(NC(=O)Nc3ccc(F)cc3)ccc2O1
- AC50 [3]: 2.38 µM (active)

SMILES: COc1ccc(C(=O)C[n+]2ccc(-c3nnc4n3CCCCC4)cc2)cc1
- IC50 [6]: > 54 µM (active)

SMILES: C[C@H]1CN([C@@H](C)CO)C(=O)Cc2cc(NC(=O)Nc3ccc(C(F)(F)F)cc3)ccc2O[C@H]1CN(C)Cc1ccccc1
- AC50 [3]: 3.08 µM (active)

SMILES: Cc1[nH]c2ccccc2c1CN1CCC(Cc2ccccc2)CC1
- CC50 [7]: > 25 µM (active)
- AC50 [8]: 3.46 µM (active)
- EC50 [9]: 10.9 µM (active)
- EC50 [10]: 0.212 µM (active)

SMILES: N=C1/C(=C\c2ccc(SCc3ccccc3)o2)C(=O)N=C2SC(CC(=O)N3CCOCC3)=NN12
- EC50 [11]: 33.3 µM (active)
- EC50 [12]: 63.4 µM (active)

SMILES: CCN1CCN(Cc2ccc(NC(=O)c3cc(NC(=O)N4CCNC4=O)cc(OC)c3)cc2C(F)(F)F)CC1
- CC50 [7]: > 25 µM (active)

SMILES: Cc1noc(C)c1NC(=O)Nc1cccc2c1O[C@@H](CN(C)S(C)(=O)=O)[C@@H](C)CN([C@@H](C)CO)C2=O
- AC50 [3]: 1.01 µM (active)

SMILES: C[C@@H]1CCCCO[C@H](CN(C)Cc2ccc(Cl)c(Cl)c2)[C@@H](C)CN([C@H](C)CO)C(=O)c2cc(NC(=O)Nc3ccc4c(c3)OCO4)ccc2O1
- AC50 [3]: 4.02 µM (active)

SMILES: CCOC(=O)c1cnc2nc(C)ccc2c1O
- EC50 [11]: 11.8 µM (active)
- EC50 [12]: 13.7 µM (inconclusive)

SMILES: O=C(COC(=O)C1CCCCC1)Nc1ccc(N2CCCCC2)cc1
- IC50 [4]: 34.6 µM (active)

SMILES: Cc1ccc(-n2nc(C)c3c2OC(N)=C(C#N)C3c2ccc(C)o2)cc1 (stereo unspecified)
- EC50 [13]: 25.7 µM (inconclusive)
- IC50 [4]: 24.9 µM (active)
- AC50 [14]: 5.9 µM (active)

SMILES: CCCN1C(=O)S/C(=C/c2ccc(N3CCOCC3)o2)C1=O
- CC50 [7]: > 25 µM (active)

SMILES: C[C@@H]1CN([C@H](C)CO)C(=O)Cc2cc(NS(=O)(=O)c3ccc(Cl)cc3)ccc2O[C@H]1CN(C)Cc1ccc2c(c1)OCO2
- AC50 [3]: 3.53 µM (active)

SMILES: C[C@@H]1CN([C@@H](C)CO)C(=O)c2cccc(NC(=O)Nc3ccc(C(F)(F)F)cc3)c2O[C@@H]1CN(C)Cc1ccc(Oc2ccccc2)cc1
- AC50 [3]: 6.09 µM (active)

SMILES: Cc1cc([N+](=O)[O-])nn1CC(=O)N/N=C/c1ccc(O)cc1O
- IC50 [4]: 14.2 µM (active)
- AC50 [15]: 12.1 µM (active)

SMILES: O=C(NN1C(=O)c2ccccc2NC1c1ccccn1)c1ccc(Br)cc1 (stereo unspecified)
- EC50 [11]: 15.5 µM (active)
- EC50 [12]: 64.9 µM (active)

SMILES: C[C@H](CO)N1C[C@H](C)[C@@H](CN(C)Cc2ccccc2)Oc2c(NC(=O)CCCCCC(=O)Nc3ccccc3N)cccc2C1=O
- AC50 [3]: 3.24 µM (active)

SMILES: N#Cc1c(-c2ccc(Cl)cc2)c2c([nH]c1=O)-c1ccccc1OC2
- EC50 [11]: 53 µM (active)
- EC50 [12]: > 300 µM (not active)
